Measured values taken from US20210391038A1, “SPECIFICALLY-SHAPED CRYSTAL OF COMPOUND AND METHOD FOR PRODUCING SAME” (TOWA PHARMACEUTICAL CO., LTD., priority 2018, published 2021).
Where a name gives a salt, the structure may show the parent alone.

How the values were obtained:
Format in all cases: physicochemical
[1] = Sphericity from SEM images (ImageJ); set-up: key: 1 = true sphere; closer to 1 = more spherical; mean of ≥5 particles; conditions: SEM image analysis, mean of particles
From the text: In the present description, “spherulite” means a crystal aggregate (polycrystal) which has a radial or concentric thin layered structure and has a spherical outer shape. Whether the crystal obtained by the method of the present invention is a spherulite or not can be determined, for example, by observing the outer shape of the crystal using SEM. For example, it can be discriminated by cutting the crystal aggregate and observing the internal structure thereof using SEM. The sphericity of the spherulite obtained by the method of the present invention is usually 0.60 or more, preferably 0.70 or more, more preferably 0.80 or more, particularly preferably 0.90 or more, and most preferably 0.95 or more. The sphericity can be calculated by the following method.
When an image of particles taken by SEM is analyzed using image processing software ImageJ, a coordinate group representing the position of pixels forming the outline of a particle is obtained. The length of the coordinate group is defined as N, and one pixel coordinate of each outline is defined as p[i] (1≤i≤N). The angle between a straight line l(k) connecting two points p[k] and p[k+N/D] and a straight line m(k) connecting two points p[k+N/D] and p[k+2N/D] is defined as θ(k) (−180°<θ<180°) (1≤k≤N, 1≤D≤N). D corresponds to the number of partitions of the outline. When N/D is not a natural number, the value is defined as the quotient obtained by dividing N by D. By calculating this angle with k=1 to N, N pieces of θ value can be obtained.
When the particle is a true sphere, θ(k) is 360/D, and the closer the particle is to a true sphere, the closer θ(k) is to this value. The error between θ(k) and the true value 360/D is evaluated by the root-mean-square error (RMSE) of the following formula:
Using the RMSE value of when D is 10 (θ(k)=36°), the sphericity is defined by the following formula: […]
The sphericity is 1 in a true sphere, and the closer the particle is to a true sphere, the closer the sphericity is to 1. Meanwhile, the sphericity of an ellipse whose long axis is infinitely long is zero. The sphericity is measured for five or more particles to calculate the mean. This mean is defined as the sphericity of each sample (see FIGS. 42 and 43).

[2] = Particle size from SEM images (equivalent circle diameter, mean particle size, crystal size); conditions: for equivalent circle diameter: SEM image, ImageJ, trihydrate
Protocol: “Equivalent circle diameter” in the present description is a diameter of a perfect circle corresponding to the area of individual particles in an image of particles taken by SEM, and is calculated from randomly selected 5 to 800 particles using image processing software ImageJ. The equivalent circle diameter of a spherulite obtained by the method of the present invention is preferably 25 μm or more, 30 μm or more, 35 μm or more, 40 μm or more, 45 μm or more, or 50 μm or more and 100 μm or less, 120 μm or less, 150 μm or less, 200 μm or less, 250 μm or less, 300 μm or less, 500 μm or less, or 1,000 μm or less. More preferably, the equivalent circle diameter is 25 to 500 μm or 30 to 300 μm.
The particle size distribution was measured in a dry manner using a spray particle size distribution analyzer AEROTRAC LDSA-SPR3500A manufactured by Microtrac Inc. The particle size distribution in Examples 2 and 7 was measured in a dry manner using a laser diffraction particle size distribution measurement MASTERSIZER 3000 manufactured by Malvern Panalytical Ltd. SEM images were measured using a scanning electron microscope JSM-IT100 manufactured by JEOL Ltd. Light microscope images were measured using an upright microscope BX53M manufactured by Olympus Corporation and a microscope digital camera DP74 manufactured by Olympus Corporation. Images for measuring the number of particles were obtained by a scanner GT-X830 manufactured by SEIKO EPSON CORPORATION. The powder X-ray diffraction (XRD) was measured using a desktop X-ray diffraction device MiniFlex300 manufactured by Rigaku Corporation. The specific surface area was measured by the BET fluid process (gas used: pure nitrogen) using a fully automatic specific surface area measuring device Macsorb HM-1208 manufactured by Mountech Co., Ltd. The moisture content was measured using a trace moisture measuring device AQ-2200 manufactured by […] SANGYO Co., Ltd. The dissolution profile was measured using μDISS Profiler manufactured by Pion Inc. Centrifugal classification was performed using a high-efficiency precision forced air classifier Lab Calssiel N-01 manufactured by SEISHIN […] Co., Ltd. Image analysis was performed using image processing software ImageJ developed by the National Institute of Health (NIH). The particle strength was measured using a particle hardness measuring device NEW GRANO manufactured by OKADA SEIKO CO., LTD. The true density was measured using a dry automatic densimeter AccuPyc II 1340-10CC manufactured by Shimadzu Corporation. The purity of a compound was measured by a high performance liquid chromatograph (LC-20A) manufactured by Shimadzu Corporation.
The spherulite of azithromycin monohydrate produced in Example 12 was cut, and the section was observed by SEM (FIG. 4). The crystal size at the outer edge was 5 to 10 μm, while the crystal size at the center was 0.2 to 1 μm.

[3] = Particle density, true density and particle packing rate
Protocol: “Particle density” in the present description is mass per unit volume when the volume of the substance itself as well as the volume of the open void and the closed void are included as the volume of polycrystalline particles. For example, when the polycrystalline particles are spherical particles, the particle density is calculated by the following formula using the mean mass of the polycrystalline particles and the mean volume of the polycrystalline particles:
Here, the mean mass of polycrystalline particles is calculated by measuring the number of polycrystalline particles contained in 1.0 mg or more, preferably 5.0 mg or more, and more preferably 10.0 mg or more of a sample by a scanner, etc. The mean volume of crystal particles is obtained by averaging the volume calculated by photographing 500 or more, preferably 1,000 or more, and more preferably 5,000 or more crystal particles by a light microscope, etc., using an equivalent circle diameter obtained from the projected area of polycrystalline particles, and assuming that the polycrystalline particles are true spheres. At this time, it is desirable that the distribution of the equivalent circle diameter is unimodal and the sharpness value is less than 1.5.
“Particle packing rate” of a polycrystal in the present description is a value calculated by the following formula:
Particle packing rate (%)=(particle density)/(true density of compound)×100 [Equation 8]
Here, “true density of compound” is a density of a substance itself not including a void. If no void exists at all inside or on the surface of a particle, the particle packing rate is 100%. The true density of a compound can be obtained by dry density measurement by the constant volume expansion method. Examples of the measuring device include a dry automatic densimeter AccuPyc II 1340-10CC manufactured by Shimadzu Corporation.
The particle size distribution was measured in a dry manner using a spray particle size distribution analyzer AEROTRAC LDSA-SPR3500A manufactured by Microtrac Inc. The particle size distribution in Examples 2 and 7 was measured in a dry manner using a laser diffraction particle size distribution measurement MASTERSIZER 3000 manufactured by Malvern Panalytical Ltd. SEM images were measured using a scanning electron microscope JSM-IT100 manufactured by JEOL Ltd. Light microscope images were measured using an upright microscope BX53M manufactured by Olympus Corporation and a microscope digital camera DP74 manufactured by Olympus Corporation. Images for measuring the number of particles were obtained by a scanner GT-X830 manufactured by SEIKO EPSON CORPORATION. The powder X-ray diffraction (XRD) was measured using a desktop X-ray diffraction device MiniFlex300 manufactured by Rigaku Corporation. The specific surface area was measured by the BET fluid process (gas used: pure nitrogen) using a fully automatic specific surface area measuring device Macsorb HM-1208 manufactured by Mountech Co., Ltd. The moisture content was measured using a trace moisture measuring device AQ-2200 manufactured by […] SANGYO Co., Ltd. The dissolution profile was measured using μDISS Profiler manufactured by Pion Inc. Centrifugal classification was performed using a high-efficiency precision forced air classifier Lab Calssiel N-01 manufactured by SEISHIN […] Co., Ltd. Image analysis was performed using image processing software ImageJ developed by the National Institute of Health (NIH). The particle strength was measured using a particle hardness measuring device NEW GRANO manufactured by OKADA SEIKO CO., LTD. The true density was measured using a dry automatic densimeter AccuPyc II 1340-10CC manufactured by Shimadzu Corporation. The purity of a compound was measured by a high performance liquid chromatograph (LC-20A) manufactured by Shimadzu Corporation. […]

[4] = Measurement of critical degree of supersaturation of spherulite; conditions: entry 19; solvent 1 EtOH, solvent 2 H2O, solvent 2/solvent 1 ratio 1; crystallization 35 °C
From the text: “Supersaturated solution” in the present description means a solution in a state of containing a solute exceeding the solubility. As the degree of supersaturation, “degree of supersaturation” can be used. Regarding the degree of supersaturation, when the concentration (mass concentration (g/g)) of a compound dissolved in a supersaturated solution is defined as C and the solubility of the compound is defined as Cs, the degree of supersaturation S can be represented by the following formula: […]
“Critical degree of supersaturation” in the present description means the lowest degree of supersaturation required to obtain a specifically-shaped crystal. […] The value of a critical degree of supersaturation varies depending on the shape of a crystal. For example, all of values of a critical degree of supersaturation required to obtain a plate crystal, a critical degree of supersaturation required to obtain a needle crystal, and a critical degree of supersaturation required to obtain a spherulite are different. The critical degree of supersaturation required to obtain a spherulite is higher than the critical degree of supersaturation required to obtain a plate crystal or a needle crystal.
The actual measured value of the critical degree of supersaturation (S*) can be measured as follows:
(1) 100 particles are observed by SEM. (2) 5 to 10 particles whose shape is close to a desired specific shape are selected, and the shape is evaluated. In particular, when the desired specific shape is a sphere, the sphericity is evaluated. (3) Based on the evaluation index of the shape, whether the selected particles have the desired specific shape or not is determined. In particular, when the desired specific shape is a sphere, the case where the sphericity is 0.60 or more is determined as a spherulite. (4) The above-mentioned operation is performed for each sample having a different degree of supersaturation during crystallization, and the minimum value of a degree of supersaturation having the specifically-shaped particles is determined as the critical degree of supersaturation. The difference between the maximum value of a degree of supersaturation not having the specifically-shaped particles and the critical degree of supersaturation should be 20% or less.
The critical degree of supersaturation of a spherulite of ketotifen fumarate was determined as follows. To 2.0 g of ketotifen fumarate, 10 mL (5 v/w) of methanol was added, followed by reflux to completely dissolve. This solution was added dropwise to 50 mL of isopropanol at 20° C. to prepare a supersaturated solution of ketotifen fumarate. The degree of supersaturation of the supersaturated solution at the end of dropwise addition was 9.0. The supersaturated solution was crystallized. The crystal was collected by filtration, followed by drying under reduced pressure at 40° C., thus obtaining a crystal of ketotifen fumarate.
Similarly, when a substrate and a solvent different from those mentioned above are used, a plurality of samples having a different degree of supersaturation are prepared and crystallized, and then the critical degree of supersaturation of the spherulite was measured.

Structure (SMILES)	sphericity of the spherulite [1]	mean particle size [2]	sphericity of the spherulite ([1]; trihydrate)	equivalent circle diameter [2]	other results
CN(C)CC/C=C1/c2ccccc2COc2ccc(CC(=O)O)cc21 [Example 31, olopatadine]	0.96±0.02	167 μm			
COc1ccc2[n-]c([S@@+]([O-])Cc3ncc(C)c(OC)c3C)nc2c1.COc1ccc2[n-]c([S@@+]([O-])Cc3ncc(C)c(OC)c3C)nc2c1.O.O.O.[Mg+2] [Esomeprazole magnesium trihydrate]					true density [3]: 1.37 g/mL; Critical degree of supersaturation S Experimental value [4]: 1.6
COc1cccc(C2(O)CCCCC2CN(C)C)c1 (stereo not drawn) [Example 29, tramadol hydrochloride]	0.90±0.08	319 μm			
Cc1ccccc1C(=O)Nc1ccc(C(=O)N2CCCC(O)c3cc(Cl)ccc32)c(C)c1 (stereo not drawn) [Example 28, tolvaptan]	0.94±0.02	145 μm			
COc1ccc2[n-]c([S@@+]([O-])Cc3ncc(C)c(OC)c3C)nc2c1.COc1ccc2[n-]c([S@@+]([O-])Cc3ncc(C)c(OC)c3C)nc2c1.O.O.O.[Mg+2] [Example 4, esomeprazole magnesium trihydrate]			0.93±0.02	183±8 μm	
COc1ccc2[n-]c([S@@+]([O-])Cc3ncc(C)c(OC)c3C)nc2c1.COc1ccc2[n-]c([S@@+]([O-])Cc3ncc(C)c(OC)c3C)nc2c1.O.O.O.[Mg+2] [Example 3, esomeprazole magnesium trihydrate]			0.97±0.01	58±7 μm	
